PubChem BioAssay AID256 (DTP/NCI, 2004)
“And” between values parts separate entries of the source, which are not always exact repeats. Equal values may be shown once. Toxic doses and inconclusive results are not listed. How the source made its calls: active means survival T/C of 150% or more; inactive means T/C below 125% in these data.

Test system: CD2F1 mice, L1210 leukemia ip, survival T/C
Assay: NCI In Vivo Anticancer Drug Screen. Data for tumor model L1210 Leukemia (intraperitoneal) in CD2F1 (CDF1) mice
Conditions: higher = longer survival
How it was run: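 Vehicle-treated tumor-bearing mice served as controls (C) for compound-treated mice (T). Reported figure is T divided by C.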

[1] = endpoint: mean survival time, dose: 5.0 mg/kg/injection, schedule: Q01DX009 (ip), vehicle: saline with Tween-80
[2] = endpoint: mean survival time, dose: 10.0 mg/kg/injection, schedule: Q01DX009 (ip), vehicle: saline with Tween-80
[3] = endpoint: mean survival time, dose: 20.0 mg/kg/injection, schedule: Q01DX009 (ip), vehicle: saline with Tween-80
[4] = endpoint: mean survival time, dose: 100.0 mg/kg/injection, schedule: Q04DX003 (ip), vehicle: saline with Tween-80
[5] = endpoint: mean survival time, dose: 200.0 mg/kg/injection, schedule: Q01DX009 (ip), vehicle: saline
[6] = endpoint: mean survival time, dose: 100.0 mg/kg/injection, schedule: Q01DX009 (ip), vehicle: saline with Tween-80
[7] = endpoint: mean survival time, dose: 200.0 mg/kg/injection, schedule: Q01DX009 (ip), vehicle: saline with Tween-80
[8] = endpoint: mean survival time, dose: 400.0 mg/kg/injection, schedule: Q01DX009 (ip), vehicle: saline with Tween-80
[9] = endpoint: mean survival time, dose: 200.0 mg/kg/injection, schedule: Q04DX003 (ip), vehicle: saline with Tween-80
[10] = endpoint: mean survival time, dose: 400.0 mg/kg/injection, schedule: Q04DX003 (ip), vehicle: saline with Tween-80
[11] = endpoint: mean survival time, dose: 25.0 mg/kg/injection, schedule: Q04DX003 (ip), vehicle: saline with Tween-80
[12] = endpoint: mean survival time, dose: 12.5 mg/kg/injection, schedule: Q04DX003 (ip), vehicle: saline with Tween-80
[13] = endpoint: mean survival time, dose: 50.0 mg/kg/injection, schedule: Q04DX003 (ip), vehicle: saline with Tween-80

Measured: T/C

[Cl][Pt+2][Cl].[NH-]c1cc2ccccc2cc1[NH-]
inactive: endpoint: mean survival time, dose: 2.5 mg/kg/injection, schedule: Q01DX009 (ip), vehicle: saline with Tween-80 102 % of control | [1] 109 % of control | [2] 109 % of control | [3] 100 % of control and 112 % of control | endpoint: mean survival time, dose: 40.0 mg/kg/injection, schedule: Q01DX009 (ip), vehicle: saline with Tween-80 105 % of control and 111 % of control | endpoint: mean survival time, dose: 80.0 mg/kg/injection, schedule: Q01DX009 (ip), vehicle: saline with Tween-80 105 % of control | endpoint: mean survival time, dose: 160.0 mg/kg/injection, schedule: Q01DX009 (ip), vehicle: saline with Tween-80 106 % of control | endpoint: mean survival time, dose: 320.0 mg/kg/injection, schedule: Q01DX009 (ip), vehicle: saline with Tween-80 111 % of control

O=C(Cn1cc[n+](CC(=O)c2ccccc2)c1)c1ccccc1
inactive: [4] 109 % of control

CC(=O)C(=O)C1=C2CCCN2CCc2cc3c(cc21)OCO3
inactive: endpoint: mean survival time, dose: 12.5 mg/kg/injection, schedule: Q01DX009 (ip), vehicle: water 96 % of control | endpoint: mean survival time, dose: 25.0 mg/kg/injection, schedule: Q01DX009 (ip), vehicle: water 94 % of control | endpoint: mean survival time, dose: 50.0 mg/kg/injection, schedule: Q01DX009 (ip), vehicle: water 91 % of control | endpoint: mean survival time, dose: 100.0 mg/kg/injection, schedule: Q01DX009 (ip), vehicle: water 96 % of control

C1CCC2CN(CCCN3CCOCC3)CC2C1 (configuration not stated)
inactive: endpoint: mean survival time, dose: 100.0 mg/kg/injection, schedule: Q01DX009 (ip), vehicle: saline 102 % of control | [5] 96 % of control

COc1ccc2cc(CC(=O)c3ccccc3)ccc2c1
inactive: [6] 100 % of control | [7] 96 % of control | [8] 90 % of control

COC1(OC)CCC(OC)(OC)C(OC)(OC)C1(OC)OC
inactive: [4] 96 % of control | [9] 94 % of control | [10] 102 % of control

CCCC1CC[N-]CC1.CCCC1CC[N-]CC1.CCCC1CC[N-]CC1.CCCC1CC[N-]CC1.[Cl][Rh][Cl]
inactive: [11] 90 % of control

CN(c1ccccc1)c1ccc(N=Nc2nc3ccccc3s2)cc1
inactive: endpoint: mean survival time, dose: 100.0 mg/kg/injection, schedule: Q01DX001 (ip), vehicle: saline with Tween-80 95 % of control | endpoint: mean survival time, dose: 200.0 mg/kg/injection, schedule: Q01DX001 (ip), vehicle: saline with Tween-80 98 % of control | endpoint: mean survival time, dose: 400.0 mg/kg/injection, schedule: Q01DX001 (ip), vehicle: saline with Tween-80 87 % of control

CC[C@@H](C)[C@@H]1NC(=O)C(NC(=O)C(CC(C)C)N(C)C(=O)C2CCCN2C(=O)C(C)O)C(C)OC(=O)C(Cc2ccc(OC)cc2)N(C)C(=O)C2CCCN2C(=O)C(CC(C)C)NC(=O)C(C)C(=O)C(C(C)C)OC(=O)C[C@H]1O (some centres not stated)
inactive: endpoint: median survival time, dose: 10.0 micrograms/kg/injection, schedule: Q01DX009 (ip), vehicle: distilled water + alcohol 104 % of control | endpoint: median survival time, dose: 25.0 micrograms/kg/injection, schedule: Q01DX009 (ip), vehicle: distilled water + alcohol 111 % of control | endpoint: median survival time, dose: 40.0 micrograms/kg/injection, schedule: Q01DX009 (ip), vehicle: distilled water + alcohol 104 % of control | endpoint: median survival time, dose: 50.0 micrograms/kg/injection, schedule: Q01DX009 (ip), vehicle: distilled water + alcohol 111 % of control | endpoint: median survival time, dose: 80.0 micrograms/kg/injection, schedule: Q01DX009 (ip), vehicle: distilled water + alcohol 112 % of control | endpoint: median survival time, dose: 100.0 micrograms/kg/injection, schedule: Q01DX009 (ip), vehicle: distilled water + alcohol 121 % of control | endpoint: median survival time, dose: 160.0 micrograms/kg/injection, schedule: Q01DX009 (ip), vehicle: distilled water + alcohol 112 % of control

CCC(=O)Nc1cccc(OS(=O)(=O)N(C)C)c1
inactive: [9] 97 % of control | [10] 94 % of control

NC(CC(=O)O)C(=O)O (configuration not stated)
inactive: [5] 97 % of control | endpoint: mean survival time, dose: 400.0 mg/kg/injection, schedule: Q01DX009 (ip), vehicle: saline 95 % of control | endpoint: mean survival time, dose: 800.0 mg/kg/injection, schedule: Q01DX009 (ip), vehicle: saline 98 % of control

Cc1ccc(Cl)cc1NS(=O)(=O)c1cccc([N+](=O)[O-])c1
inactive: [4] 98 % of control | [9] 106 % of control | [10] 88 % of control

Cc1ccn2c(=O)c(CCBr)c(C)nc2c1
inactive: endpoint: mean survival time, dose: 75.0 mg/kg/injection, schedule: Q01DX001 (ip), vehicle: saline 96 % of control

COc1ccc2ccccc2c1-c1c(O)ccc2ccccc12
inactive: endpoint: mean survival time, dose: 12.5 mg/kg/injection, schedule: Q01DX009 (ip), vehicle: other 101 % of control | endpoint: mean survival time, dose: 25.0 mg/kg/injection, schedule: Q01DX009 (ip), vehicle: other 97 % of control | endpoint: mean survival time, dose: 50.0 mg/kg/injection, schedule: Q01DX009 (ip), vehicle: other 91 % of control

CN(C)C(=O)SC1=C(c2c(Cl)cccc2Cl)C(=O)c2ccccc21
inactive: endpoint: median survival time, dose: 25.0 mg/kg/injection, schedule: Q01DX009 (ip), vehicle: Klucel (hydroxypropylcellulose) (HPC) 112 % of control | endpoint: median survival time, dose: 50.0 mg/kg/injection, schedule: Q01DX009 (ip), vehicle: Klucel (hydroxypropylcellulose) (HPC) 112 % of control | endpoint: median survival time, dose: 100.0 mg/kg/injection, schedule: Q01DX009 (ip), vehicle: Klucel (hydroxypropylcellulose) (HPC) 104 % of control | endpoint: median survival time, dose: 200.0 mg/kg/injection, schedule: Q01DX009 (ip), vehicle: Klucel (hydroxypropylcellulose) (HPC) 101 % of control | endpoint: median survival time, dose: 400.0 mg/kg/injection, schedule: Q01DX009 (ip), vehicle: Klucel (hydroxypropylcellulose) (HPC) 108 % of control

O=c1cc(C(F)(F)F)[nH]c2ccc(F)cc12
inactive: [1] 101 % of control | [2] 100 % of control | [3] 96 % of control

COC(C(N)=O)(c1ccccc1)C(F)(F)F (configuration not stated)
inactive: [6] 101 % of control | [4] 102 % of control | [7] 105 % of control | [9] 100 % of control | [8] 94 % of control | [10] 89 % of control

NC(CSS(=O)(=O)O)=NCc1cccs1
inactive: endpoint: mean survival time, dose: 25.0 mg/kg/injection, schedule: Q04DX002 (ip), vehicle: saline with Tween-80 95 % of control | endpoint: mean survival time, dose: 50.0 mg/kg/injection, schedule: Q04DX002 (ip), vehicle: saline with Tween-80 115 % of control

CCc1ccc(C(=O)O)cc1S(=O)(=O)Cl
inactive: endpoint: mean survival time, dose: 12.5 mg/kg/injection, schedule: Q01DX009 (ip), vehicle: saline with Tween-80 101 % of control | [12] 104 % of control | endpoint: mean survival time, dose: 25.0 mg/kg/injection, schedule: Q01DX009 (ip), vehicle: saline with Tween-80 97 % of control | [11] 101 % of control | endpoint: mean survival time, dose: 50.0 mg/kg/injection, schedule: Q01DX009 (ip), vehicle: saline with Tween-80 95 % of control | [13] 103 % of control | [4] 97 % of control

N#Cc1ncc(Cl)cc1[N+](=O)[O-]
inactive: [12] 101 % of control | [11] 101 % of control | [13] 101 % of control

O=NN(CCSCCCCl)C(=O)NC1CCCCC1
inactive: endpoint: mean survival time, dose: 6.25 mg/kg/injection, schedule: Q01DX001 (ip), vehicle: distilled water + Tween-80 96 % of control | endpoint: mean survival time, dose: 12.5 mg/kg/injection, schedule: Q01DX001 (ip), vehicle: distilled water + Tween-80 96 % of control | endpoint: mean survival time, dose: 25.0 mg/kg/injection, schedule: Q01DX001 (ip), vehicle: distilled water + Tween-80 101 % of control | endpoint: mean survival time, dose: 50.0 mg/kg/injection, schedule: Q01DX001 (ip), vehicle: distilled water + Tween-80 102 % of control | endpoint: mean survival time, dose: 100.0 mg/kg/injection, schedule: Q01DX001 (ip), vehicle: distilled water + Tween-80 101 % of control | endpoint: mean survival time, dose: 200.0 mg/kg/injection, schedule: Q01DX001 (ip), vehicle: distilled water + Tween-80 102 % of control | endpoint: mean survival time, dose: 400.0 mg/kg/injection, schedule: Q01DX001 (ip), vehicle: distilled water + Tween-80 118 % of control
